One series concerns the target A2a receptor (Rattus norvegicus, UniProt P30543). To be noted: Siddiqi et al (1995); cited from earlier work.
The subject of series [1] is multiple sclerosis (MS) patients. To be noted: patients having MS, U.S. Pat. No. 5,506,214; cited from earlier work.
The next series addresses T1, A1 receptor (Rattus norvegicus, UniProt P25099).
T1 sequence (P25099 1-326): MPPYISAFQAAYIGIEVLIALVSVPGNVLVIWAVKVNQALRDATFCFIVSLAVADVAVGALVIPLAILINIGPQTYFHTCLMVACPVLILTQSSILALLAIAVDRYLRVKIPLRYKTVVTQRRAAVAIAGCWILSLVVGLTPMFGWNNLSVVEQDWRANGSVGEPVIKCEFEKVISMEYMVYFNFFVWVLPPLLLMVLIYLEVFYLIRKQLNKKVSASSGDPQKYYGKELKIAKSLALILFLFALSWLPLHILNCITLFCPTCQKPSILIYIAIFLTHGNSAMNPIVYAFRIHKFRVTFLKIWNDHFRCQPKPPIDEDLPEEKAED
To be noted: Siddiqi et al (1995); cited from earlier work.

The target in series [2] is T2, A2A receptor in rat striatum (Rattus norvegicus, UniProt P30543).
T2 construct: the A2A receptor in rat striatum; from tissue; host or cells: rat striatum
Kind of series: Radioligand binding, [3H]ZM 241385 displacement. The following applies: [3H]ZM 241385, rat striatal membranes.

A further series concerns EAE in female C57B1 mice. Description: MOG-induced EAE in C57B1 mice, clinical score. Type of series: in vivo, mouse. The following applies: MOG-immunized C57BL/6J female mice, oral treatment from day 7 (FIG. 3). As to the method: . The encephalitogenic emulsion containing MOG (300 μg/mouse) in Complete Freund's adjuvant enriched with 5 mg/mL Mycobacterium Tuberculosis was injected subcutaneously in the right flank of the mouse. A boost of the encephalitogenic emulsion was injected subcutaneously in the left flank one week later. Also, on the day of the first injection of MOG, Pertussis toxin (300 ng/mouse) was injected intraperitoneally at a volume dose of 0.1 mL/mouse. The injection of the Pertussis Toxin was repeated after 48 hours. The mice were observed daily from the 10th day post-EAE induction (first injection of MOG) and the EAE clinical signs were scored as follows:. 0—No neurological signs; 1—Distal limp tail: 1.5—Complete limp tail; 2—Difficulties to return on feet when laid on the back; 3—Ataxia; 4—Early paralysis; 5—Full paralysis; 6—Moribund/Death. […] The clinical score was monitored daily starting with the appearance of neurological signs.

A further series deals with IL-10. Description: Western blot of spinal cord protein extract of EAE rats. The class given is in vivo, rat. The following applies: treated vs untreated (FIG. 2). (A western blot detects proteins with antibodies after separation by electrophoresis.)
The test system of the next series is TNF-α. The description is as above. Type of series: in vivo, rat. The following applies: treated vs untreated (FIG. 2).
The nature of series [3]: Preliminary qualitative solubility study. The class given is physicochemical. The following applies: 1 mg/ml, ambient temperature.
The target in series [4] is T3, adenosine A1 receptor in rat brain cortex (Rattus norvegicus, UniProt P25099).
T3 construct: the adenosine A1 receptor in rat brain cortex; from tissue; host or cells: rat brain cortex
T3 sequence (P25099 1-326): T1 sequence (P25099 1-326)
Kind of series: Radioligand binding, [3H]DPCPX displacement. The following applies: rat cortical membranes, 10 μM.

In series [5] the test system is Experimental autoimmune encephalomyelitis (EAE) in female Lewis rats. Description: MBP-induced EAE in Lewis rats, clinical score. Type of series: in vivo, rat. To be noted: 10 μg/kg PO BID from day 7, difference in maximal clinical score P<0.01 (FIG. 1). As to the method: EAE is an inflammatory demyelinating disease of the nervous system, which serves as a model for multiple sclerosis (MS). EAE was induced by intradermal injection at the base of the tail of female Lewis rats (8 weeks old) with an emulsion consisting of the following for each rat: 100 μg myelin basic protein (MBP) from guinea pig (M2295; Sigma), 0.1 ml Complete Freund's adjuvant (CFA; F5506, Sigma), and 0.2 mg of Mycobacterium tuberculosis H37 Ra (M. tuberculosis, 3114, Difco). The emulsion was injected in two halves into the medial footpad of each hind limb of the rats.
The rats developed clinical EAE symptoms which were graded into the following categories: 0, no neurological symptoms; 1, loss of tail tonus and paralysis of the whole tail; 2, hind limbs weakness; 3, hind limbs paralysis; 4, quadriplegia; 5, moribund. The immunized rats developed acute monophasic EAE within 10 days after immunization.

For series [6], the system named is colitis in male Balb/C mice. Kind of series: Dextran sodium sulfate colitis model. The following applies: 5% DSS Balb/c mice. The class given is in vivo, mouse. An excerpt: Colitis induced by dextran sodium sulfate is a murine model of intestinal inflammation that resembles human inflammatory bowel diseases such as Crohn's disease. Male Balb/C mice, 8 weeks of age were fed for 7 days, with 5% dextran sulfate sodium in distilled water throughout the experiments. […] Weight loss and survival were monitored.

In series [7] the target is T4, human adenosine A2A receptors expressed in CHO cells (Homo sapiens, UniProt P29274).
T4 construct: expressed in transfected cells; host or cells: CHO
Kind of series: cAMP assay A2A (stimulation of cAMP production). The class given is cell-based. As to the method: After incubation for 40 minutes at 37° C., 100 μL agonist was added. […] Wells were stored at −20° C. until assay.
Wells were stored at −20° C. until assay. […] As a buffer was used 150 mM K2HPO4/10 mM EDTA/0.2% Bovine Serum Albumine (BSA) at pH 7.5.
(§1) Data Analysis. Apparent Ki and EC50 values were computed from the displacement curves by non-linear regression of the competition curves with the software package Prism (Graph Pad, San Diego, Calif.).

A further series deals with phosphorylated GSK-3β. Kind of series: Western blot of spinal cord protein extract of EAE rats. Type of series: in vivo, rat. To be noted: treated vs untreated (FIG. 2).
Series [8] has as its target T5, human A3 receptor as expressed in HEK 293 cells (Homo sapiens, UniProt P0DMS8).
T5 construct: expressed in transfected cells; host or cells: HEK 293
T5 sequence (P0DMS8 1-318): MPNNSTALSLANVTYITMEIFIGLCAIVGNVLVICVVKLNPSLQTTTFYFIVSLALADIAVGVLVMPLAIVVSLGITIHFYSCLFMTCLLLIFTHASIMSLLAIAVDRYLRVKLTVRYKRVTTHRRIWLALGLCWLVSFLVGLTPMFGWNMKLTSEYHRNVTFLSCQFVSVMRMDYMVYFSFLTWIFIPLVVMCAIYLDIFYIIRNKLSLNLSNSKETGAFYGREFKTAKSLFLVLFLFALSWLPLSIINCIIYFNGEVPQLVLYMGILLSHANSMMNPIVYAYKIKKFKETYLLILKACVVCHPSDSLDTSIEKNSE
Kind of series: Radioligand binding, [125I]AB-MECA displacement. The following applies: human A3 receptor in HEK 293 cells, ±SEM, n = 3. As to the method:
General. […] AB-MECA, an A3 receptor agonist, was used. Displacement experiments were performed in the absence of GTP.
Radioligand Binding Studies. […] Incubations were carried out for 1 hr at 37° C. and were terminated by rapid filtration over Whatman GF/B filters, using a Brandell cell harvester (Brandell, Gaithersburg, Md.). Tubes were washed three times with 3 ml of buffer. Radioactivity was determined in a Beckman 5500B γ-counter. Nonspecific binding was determined in the presence of 10^−5 M R-PIA.
as §1

T2 sequence (P30543 whole entry): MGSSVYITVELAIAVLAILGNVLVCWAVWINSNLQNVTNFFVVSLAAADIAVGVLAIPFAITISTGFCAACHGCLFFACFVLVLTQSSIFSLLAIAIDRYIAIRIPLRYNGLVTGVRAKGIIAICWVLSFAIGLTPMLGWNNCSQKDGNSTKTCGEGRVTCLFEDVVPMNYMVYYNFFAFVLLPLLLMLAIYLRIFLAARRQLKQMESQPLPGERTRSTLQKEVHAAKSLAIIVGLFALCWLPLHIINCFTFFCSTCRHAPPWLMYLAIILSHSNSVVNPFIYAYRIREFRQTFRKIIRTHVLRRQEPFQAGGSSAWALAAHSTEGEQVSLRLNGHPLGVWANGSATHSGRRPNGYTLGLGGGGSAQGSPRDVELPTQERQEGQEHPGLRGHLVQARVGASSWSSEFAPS
T4 sequence (P29274 whole entry): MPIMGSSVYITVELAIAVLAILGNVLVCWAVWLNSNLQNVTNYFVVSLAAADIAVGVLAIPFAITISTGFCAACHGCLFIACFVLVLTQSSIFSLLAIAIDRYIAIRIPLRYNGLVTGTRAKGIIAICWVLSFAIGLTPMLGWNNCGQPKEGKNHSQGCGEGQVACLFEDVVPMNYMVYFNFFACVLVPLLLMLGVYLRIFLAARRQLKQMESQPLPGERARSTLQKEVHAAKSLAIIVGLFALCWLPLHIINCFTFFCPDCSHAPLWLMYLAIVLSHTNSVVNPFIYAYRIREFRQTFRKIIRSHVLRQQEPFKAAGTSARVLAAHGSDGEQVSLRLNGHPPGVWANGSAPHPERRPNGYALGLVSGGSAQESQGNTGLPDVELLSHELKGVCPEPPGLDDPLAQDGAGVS
Chain of A2a receptor (P30543 whole entry): as the sequence (P30543 whole entry) above

With `Nc1nc(Cl)nc2c1ncn2[C@H]1C[C@H](O)[C@@H](CO)O1` [CdA, 2-chloro-2′-deoxyadenosine], the Ki on A2a receptor is 20000 nM. Also, the “Effect on MS disease condition” value in series [1] is listed as “markedly ameliorate”. Moreover, the “Type of action at A1 receptors” value on A1 receptor was “putative partial agonist”.

For `CNC(=O)[C@H]1O[C@@H](n2cnc3c(NCc4cccc(I)c4)nc(Cl)nc32)[C@H](O)[C@@H]1O` [Cl-IB-MECA, reference compound], in series [2] (10 μM), the “% displacement at 10^−5 M, A2A” value amounted to 24%.

As for `CCCCC#Cc1nc(N)c2ncn(C3OC(CSC)C(O)C3O)c2n1` (stereo not drawn) [CF402, 5′-deoxy-2-(1-hexynyl)-5′-methylthioadenosine], in the series with EAE in female C57B1 mice, the “Inhibition of development of EAE clinical signs vs control group” value came to 40%. For the same molecule, in the series on IL-10, the “Level of IL-10 in spinal cord protein extract” value is given as “up-regulation”. Moreover, the “Level of TNF-α in spinal cord protein extract” value with TNF-α is reported as “down-regulation”. Also, the “Solubility in DMSO” value in series [3] (DMSO) is “Soluble”. In addition, in series [3] (water), the Solubility in water entry was “Insoluble”. In addition, the affinity in [2] (±SEM, n = 3), expressed as Ki, was 60 ± 20 nM. The “% displacement at 10^−5 M, A1” value in series [4] came to 36%. In addition, in [5], the “Clinical EAE score vs control group” value is listed as “remarkably low clinical score”. For the same molecule, the “Clinical signs of colitis” value in series [6] (10 μg/kg PO BID from day 4) was “protected”. Also, the “Weight loss vs control” value in [6] (10 μg/kg PO BID from day 4 (FIG. 4)) was “reduced weight loss”. The Emax in series [7] (CHO) amounted to 45 ± 6%. Moreover, it took 0.7 ± 0.1 µM to reach a half-maximal effect in series [7] (cAMP production, A2A CHO cells) (EC50). Further, the “Phosphorylated GSK-3β protein expression level in spinal cord” value with phosphorylated GSK-3β is listed as “decrease”.

The molecule `OC[C@H]1O[C@@H](n2cnc3c(NC4CCCC4)ncnc32)[C@H](O)[C@@H]1O` [CPA] yielded a Ki in [8] of 120 ± 15 nM.

For orientation: Ki means the equilibrium dissociation constant of an inhibitor or competing ligand from its target. As a reminder, the Emax is the size of the effect at its maximum, as opposed to the concentration needed. As usually defined, the EC50 is the concentration needed to bring the measured effect to its halfway point. Read a low EC50 as greater potency.

Values taken from patent publication US20050277615A1, “Pharmaceutical compositions having anti-inflammatory activity” (CAN-FITE BIOPHARMA LTD., priority 2004, published 2005).
